Ten molecules from patent US20210261527A1, “OGA INHIBITOR COMPOUNDS” (Janssen Pharmaceutica NV, priority 2018, published 2021) can be followed below.

SMILES strings stand for the structures. Where a name gives a salt, the structure may show the parent alone.

Data set [1] deals with T1, hOGA in HEK293 cells inducible for P301L mutant human Tau (isoform 2N4R) (Homo sapiens, UniProt O60502).
T1 construct: endogenous in cells; host or cells: HEK293 cells inducible for P301L mutant human Tau (isoform 2N4R)
T1 sequence (O60502 1-916): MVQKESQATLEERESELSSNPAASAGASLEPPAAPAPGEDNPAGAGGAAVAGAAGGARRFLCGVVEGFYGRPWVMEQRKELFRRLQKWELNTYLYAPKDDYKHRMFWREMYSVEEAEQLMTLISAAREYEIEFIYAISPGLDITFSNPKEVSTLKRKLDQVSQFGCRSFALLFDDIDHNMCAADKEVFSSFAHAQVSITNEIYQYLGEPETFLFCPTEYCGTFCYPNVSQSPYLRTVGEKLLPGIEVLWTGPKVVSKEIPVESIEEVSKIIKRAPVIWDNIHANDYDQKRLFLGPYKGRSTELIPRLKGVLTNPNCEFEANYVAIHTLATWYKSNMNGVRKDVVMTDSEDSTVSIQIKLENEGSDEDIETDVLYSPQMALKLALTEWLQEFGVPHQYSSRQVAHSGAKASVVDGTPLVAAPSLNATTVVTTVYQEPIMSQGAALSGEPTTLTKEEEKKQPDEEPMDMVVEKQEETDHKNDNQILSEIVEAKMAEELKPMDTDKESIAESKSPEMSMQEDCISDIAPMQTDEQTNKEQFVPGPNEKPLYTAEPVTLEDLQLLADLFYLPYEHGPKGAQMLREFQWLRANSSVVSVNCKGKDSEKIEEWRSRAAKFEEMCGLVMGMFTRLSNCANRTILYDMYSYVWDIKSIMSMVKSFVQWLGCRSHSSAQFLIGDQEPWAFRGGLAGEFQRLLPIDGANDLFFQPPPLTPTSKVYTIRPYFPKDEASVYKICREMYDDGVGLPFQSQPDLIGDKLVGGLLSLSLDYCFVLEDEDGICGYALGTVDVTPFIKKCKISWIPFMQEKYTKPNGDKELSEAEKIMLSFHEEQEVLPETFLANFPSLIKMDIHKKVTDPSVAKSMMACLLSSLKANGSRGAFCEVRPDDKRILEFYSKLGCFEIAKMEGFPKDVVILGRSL
Briefly: OGA cellular assay (ICC detection of O-GlcNAcylated proteins). The data set is classed as cell-based. To be noted: 6 hours incubation; for Emax: maximum = Thiamet G at 200 uM; for EC50: O-GlcNAcylation intensity readout at 488 nm, read-out: Cellular hOGA, pEC50 (converted). The procedure:
HEK293 cells inducible for P301L mutant human Tau (isoform 2N4R) were established at Janssen. Thiamet-G was used for both plate validation (high control) and as reference compound (reference EC50 assay validation). OGA inhibition is evaluated through the immunocytochemical (ICC) detection of O-GlcNAcylated proteins by the use of a monoclonal antibody (CTD110.6; Cell Signaling, #9875) detecting 0-GlcNAcylated residues as previously described (Dorfmueller et al. 2010 Chemistry & biology, 17:1250). Inhibition of OGA will result in an increase of O-GlcNAcylated protein levels resulting in an increased signal in the experiment. Cell nuclei are stained with Hoechst to give a cell culture quality control and a rough estimate of immediate compounds toxicity, if any. ICC pictures are imaged with a Perkin Elmer Opera Phenix plate microscope and quantified with the provided software Perkin Elmer Harmony 4.1.
Cells were propagated in DMEM high Glucose (Sigma, #D5796) following standard procedures. 2 days before the cell assay cells are split, counted and seeded in Poly-D-Lysine (PDL) coated 96-wells (Greiner, #655946) plate at a cell density of 12,000 cells per cm^2 (4,000 cells per well) in 100 μl of Assay Medium (Low Glucose medium is used to reduce basal levels of GlcNAcylation) (Park et al. 2014 The Journal of biological chemistry 289:13519). At the day of compound test medium from assay plates was removed and replenished with 90 μl of fresh Assay Medium. 10 μl of compounds at a 10fold final concentration were added to the wells. Plates were centrifuged shortly before incubation in the cell incubator for 6 hours. DMSO concentration was set to 0.2%. Medium is discarded by applying vacuum. For staining of cells medium was removed and cells washed once with 100 μl D-PBS (Sigma, #D8537). From next step onwards unless other stated assay volume was always 50 μl and incubation was performed without agitation and at room temperature. Cells were fixed in 50 μl of a 4% paraformaldehyde (PFA, Alpha aesar, #043368) PBS solution for 15 minutes at room temperature. […] Before analysis samples were washed 2 times manually for 5 minutes in ICC base buffer.
Imaging is performed using Perkin Elmer Phenix Opera using a water 20× objective and recording 9 fields per well. Intensity readout at 488 nm is used as a measure of O-GlcNAcylation level of total proteins in wells. To assess potential toxicity of compounds nuclei were counted using the Hoechst staining. IC50-values are calculated using parametric non-linear regression model fitting. As a maximum inhibition Thiamet G at a 200 uM concentration is present on each plate. In addition, a concentration response of Thiamet G is calculated on each plate.

The target in data set [2] is T2, recombinant human Meningioma Expressed Antigen 5 (MGEA5), also referred to as O-GlcNAcase (OGA) (Homo sapiens, UniProt O60502).
T2 construct: Full length OGA enzyme was purchased at OnGene (cat #TP322411); purchased OnGene (so in the source)
T2 sequence (O60502 1-916): T1 sequence (O60502 1-916)
Briefly: OGA biochemical assay (FM-GlcNAc hydrolysis, fluorescence). To be noted: full length OGA 2 nM, FM-GlcNAc 100 uM, pH 7.2, 6 h at room temperature; for Emax: read-out: Enzymatic Emax (%); for IC50: read-out: Enzymatic hOGA, pIC50 (converted). An excerpt:
The assay is based on the inhibition of the hydrolysis of fluorescein mono-β-D-N-Acetyl-Glucosamine (FM-GlcNAc) (Mariappa et al. 2015, Biochem J 470:255) by the recombinant human Meningioma Expressed Antigen 5 (MGEA5), also referred to as O-GlcNAcase (OGA). The hydrolysis FM-GlcNAc (Marker Gene technologies, cat #M1485) results in the formation of β-D-N-glucosamineacetate and fluorescein. The fluorescence of the latter can be measured at excitation wavelength 485 nm and emission wavelength 538 nm. An increase in enzyme activity results in an increase in fluorescence signal. Full length OGA enzyme was purchased at OnGene (cat #TP322411). The enzyme was stored in 25 mM Tris.HCl, pH 7.3, 100 mM glycine, 10% glycerol at −20° C. Thiamet G and GlcNAcStatin were tested as reference compounds (Yuzwa et al. 2008 Nature Chemical Biology 4:483; Yuzwa et al. 2012 Nature Chemical Biology 8:393). The assay was performed in 200 mM Citrate/phosphate buffer supplemented with 0.005% Tween-20. 35.6 g Na2HPO4 2 H2O (Sigma, #C0759) were dissolved in 1 L water to obtain a 200 mM solution. 19.2 g citric acid (Merck, #1.06580) was dissolved in 1 L water to obtain a 100 mM solution. pH of the sodiumphosphate solution was adjusted with the citric acid solution to 7.2. The buffer to stop the reaction consists of a 500 mM Carbonate buffer, pH 11.0. 734 mg FM-GlcNAc were dissolved in 5.48 mL DMSO to obtain a 250 mM solution and was stored at −20° C. OGA was used at a 2 nM concentration and FM-GlcNAc at a 100 uM final concentration. Dilutions were prepared in assay buffer.
50 nl of a compound dissolved in DMSO was dispensed on Black Proxiplate™ 384 Plus Assay plates (Perkin Elmer, #6008269) and 3 μl fl-OGA enzyme mix added subsequently. Plates were pre-incubated for 60 min at room temperature and then 2 μl FM-GlcNAc substrate mix added. […] Plates were briefly centrifuged for 1 min at 1000 rpm and incubate at room temperature for 6 h. To stop the reaction 5 μl STOP buffer were added and plates centrifuge again 1 min at 1000 rpm. Fluorescence was quantified in the Thermo Scientific Fluoroskan Ascent or the PerkinElmer EnVision with excitation wavelength 485 nm and emission wavelength 538 nm.
For analysis a best-fit curve is fitted by a minimum sum of squares method. From this an IC50 value and Hill coefficient was obtained. High control (no inhibitor) and low control (saturating concentrations of standard inhibitor) were used to define the minimum and maximum values.

Molecule `Cc1cc(C[C@H]2CCCN(C(C)c3ccc4cccnc4c3)C2)cc(C)n1` (mixture of isomers) (as salt: HCl) [Compound 9] registered a melting point of 262.69 °C.
For `Cc1cc(C[C@H]2CCCN(C(C)c3cc4ncccc4cn3)C2)cc(C)n1` (mixture of isomers) [Compound 6], the Emax in data set [1] turned out to be 41.1%. In data set [2], the Emax stood at 99.6% and the IC50 is 47.9 nM.
With `Cc1cc(C[C@H]2CCCN(C(C)c3ccc4cccnc4n3)C2)cc(C)n1` (mixture of isomers) [Compound 7], in data set [1], the EC50 was 234 nM and the Emax is 71.1%. Besides, in data set [2], the Emax came out at 101% and the IC50 was 14.8 nM.
Taken in the same sequence, the figures for `Cc1cc(C[C@H]2CCCN(C(C)c3ccc4nc(O)cnc4c3)C2)cc(C)n1` (mixture of isomers) [Compound 10] were over 1000 nM, 11.2%, 101% and 107 nM.
With `Cc1cc(C[C@H]2CCCN([C@@H](C)c3ccc4ccc(C)nc4c3)C2)cc(C)n1` (single isomer, unassigned) [Compound 2], in data set [2], the Emax came to 60.8% and the IC50 was 7240 nM.
As to `Cc1cc(C[C@H]2CCCN([C@H](C)c3ccc4ccc(C)nc4c3)C2)cc(C)n1` (single isomer, unassigned) [Compound 3], in data set [1], the EC50 was over 1000 nM and the maximal response (Emax) came out at 34.8%. Besides, in data set [2], the Emax was 101% and the IC50 is 53.7 nM.
For `Cc1cc(C[C@H]2CCCN([C@@H](C)c3cnc4cccnc4c3)C2)cc(C)n1` (single isomer, unassigned) [Compound 4], in data set [1], the EC50 is 646 nM and the Emax was determined as 50.5%. In addition, in data set [2], the Emax came out at 102% and the IC50 is 28.8 nM.
Taken in the same sequence, the figures for `Cc1cc(C[C@H]2CCCN([C@H](C)c3cnc4cccnc4c3)C2)cc(C)n1` (single isomer, unassigned) [Compound 5] were 162 nM, 86.4%, 103% and 5.5 nM.
`Cc1cc(C[C@H]2CCCN(Cc3ccc4cccnc4c3)C2)cc(C)n1` [Compound 1] displayed a melting point of 152.83 °C. In addition, in data set [1], the EC50 was over 1000 nM and the Emax worked out at 33%. Further, in data set [2], the Emax came out at 95.8% and the IC50 was 288 nM.
For the molecule `Cc1cc(C[C@H]2CCCN(Cc3ccc4cccnc4n3)C2)cc(C)n1` [Compound 8], in data set [1], the EC50 was over 1000 nM and the Emax is 29.8%. In data set [2], the Emax was determined as 98.5% and the IC50 was 195 nM.

For orientation: melting point means the temperature, or range, at which the solid turns liquid. What is called Emax is the greatest response seen or fitted, relative to the assay's reference.
